± gives the expanded uncertainty stated by the source.
Assays:
[1] = 303.15 K, Liquid; for mass density: 101 kPa; for speed of sound: 101.33 kPa, Frequency=2 MHz
[2] = xn = mol fraction of the nth substance listed; conditions: 303.15 K, 101 kPa, Liquid; for speed of sound: Frequency=2 MHz

c1ccccc1 [benzene]
[1]
Conditions	mass density [kg/m3]	speed of sound [m/s]
–	872 ± 9	1257 ± 11

c1ccccc1 [benzene] + CC(CC(C)(C)C)CP(=O)(O)CC(C)CC(C)(C)C
[2], x2 = 0
Conditions	mass density [kg/m3]	speed of sound [m/s]
–	872 ± 9	1257 ± 11

CC(CC(C)(C)C)CP(=O)(O)CC(C)CC(C)(C)C (stereo unspecified) [bis-(2,4,4-trimethylpentyl) phosphinic acid]
[1]
Conditions	mass density [kg/m3]	speed of sound [m/s]
–	924.7 ± 12	1290.4 ± 17

CC(CC(C)(C)C)CP(=O)(O)CC(C)CC(C)(C)C (stereo unspecified) [bis-(2,4,4-trimethylpentyl) phosphinic acid] + Cc1ccccc1
[2]
Conditions	mass density [kg/m3]	speed of sound [m/s]
x1 = 0.0781	875.6 ± 9.1	1266.5 ± 11
x1 = 0.1268	882.5 ± 9.2	1266.9 ± 11
x1 = 0.1843	888 ± 9.3	1267.5 ± 11
x1 = 0.2532	893.8 ± 9.4	1268.2 ± 11
x1 = 0.3371	899.7 ± 9.6	1269.2 ± 12
x1 = 0.4416	900.9 ± 9.8	1274.6 ± 12
x1 = 0.5755	906.4 ± 10	1278 ± 13
x1 = 0.7531	913.1 ± 11	1284 ± 15
x1 = 1	924.7 ± 12	1290.4 ± 17

CC(CC(C)(C)C)CP(=O)(O)CC(C)CC(C)(C)C (stereo unspecified) [bis-(2,4,4-trimethylpentyl) phosphinic acid] + c1ccccc1
[2]
Conditions	mass density [kg/m3]	speed of sound [m/s]
x1 = 0.0666	886.8 ± 9.2	1252.2 ± 11
x1 = 0.109	891.9 ± 9.3	1255.2 ± 11
x1 = 0.1599	895.6 ± 9.4	1258.1 ± 11
x1 = 0.2222	901.1 ± 9.5	1259.1 ± 11
x1 = 0.2999	904.9 ± 9.6	1261.3 ± 12
x1 = 0.3999	908.4 ± 9.8	1263.2 ± 12
x1 = 0.5332	912.3 ± 10	1266.8 ± 13
x1 = 0.7199	915.3 ± 11	1274.3 ± 14
x1 = 1	924.7 ± 12	1290.4 ± 17

Cc1ccccc1 [toluene]
[1]
Conditions	mass density [kg/m3]	speed of sound [m/s]
–	866.7 ± 8.9	1271.9 ± 11

Cc1ccccc1 [toluene] + CC(CC(C)(C)C)CP(=O)(O)CC(C)CC(C)(C)C
[2], x2 = 0
Conditions	mass density [kg/m3]	speed of sound [m/s]
–	866.7 ± 8.9	1271.9 ± 11
